{
  "source": "patent US5587463A",
  "about": "“Texaphyrin macrocycles and metal complexes thereof” (Board of Regents, The University of Texas System, priority 1994, dated 1996)",
  "key": {"[1]": {"test": "Optical and photophysical properties of metallotexaphyrins (laser flash photolysis, fluorescence, singlet oxygen luminescence)", "assay_type": "physicochemical", "parameters": "tt (triplet lifetime): unit not given here", "settings": "CH3 OH", "from_the_text": "Finally, several complexes containing paramagnetic metal ions (e.g. Mn^II, Sm^III, and Eu^III, structures 5c -7c) were investigated.\nComparison of the initial intensity with that obtained using tetrakis (4-hydroxyphenyl)porphyrin (THPP) as photosensitizer^3b under identical conditions allowed calculation of the quantum yields for production of singlet oxygen (^.phi. 1.cndot.2)."}, "herpes simplex (HSV-1)": {"system": "herpes simplex (HSV-1)", "test": "Preliminary in vitro HSV-1 infectivity study in 10% human serum", "assay_type": "cell-based", "settings": "irradiation at 767 nm", "from_the_text": "(§1) In summary, the new metallotexaphrin complexes discussed here show three important optical properties which make them unique among existing porphyrin-like macrocycles. They absorb strongly in a physiologically important region (i.e. 730-770 nm), form long-lived triplet states in high yield, and act as efficient photosensitizers for the formation of singlet oxygen (see, e.g. FIG. 21)."}, "lymphocyte": {"system": "lymphocyte", "test": "Preliminary in vitro lymphocyte mitogenic activity study in 10% human serum", "assay_type": "cell-based", "settings": "irradiation at 767 nm", "from_the_text": "as §1"}, "[2]": {"test": "Cytotoxicity in the absence of light", "assay_type": "cell-based", "settings": "preliminary", "source_text": "In addition, some preliminary toxicity and stability information will begin to emerge from these in vitro experiments."}, "lymphocytes": {"system": "lymphocytes", "test": "Localization on lymphocytes by absorption and emission measurements", "assay_type": "cell-based", "from_the_text": "(§2) Several preliminary in vitro biological studies have been carried out with the cadmium(II) complexes of the 18 and 22 π-electron texaphyrins 14D and 5D. […] This latter result, in particular, augurs well for the eventual use of these materials in prophylactic photodynamic anti-AIDS blood-treatment programs. The 2 log decrease in HSV-1 activity achieved with the texaphyrin systems studied to date is not yet sufficient to completely design a viable protocol: Both HPD and PII, as well as sapphyrin (6D) , reprepared by literature methods^70 provide about a 5 log decrease in viral activity under similar light fluence when irradiated at the appropriate lowest energy transition (630 and 690 nm, respectively). Although a mechanistic comparison with the incompletely characterized hematoporphyrin-derived systems is difficult, a direct structural correspondence exists between the tripyrroledimethine-derived cadmium(II) texaphyrin and free-base sapphyrin systems: The main difference is in overall charge on the photosensitizer. It may thus be that these two macrocycle types are bound to the virus envelope in a different manner; perhaps the sapphyrin \"intercalates\" into the lipid layer and the charged metallotexaphyrin sits on the surface of the membrane and as such could suffer from deleterious aggregations (which would lower singlet oxygen production)."}, "HSV-1": {"system": "HSV-1", "test": "Preliminary in vitro photo-killing of HSV-1 infectivity", "assay_type": "cell-based", "from_the_text": "as §2"}, "[3]": {"test": "Stability in methanol/water or water (decomplexation, decomposition)"}, "[4]": {"test": "Imine hydrolysis half-life by pH"}, "[5]": {"settings": "1:1 methanol/water"}, "[6]": {"test": "Stability of free-base macrocycle", "assay_type": "physicochemical"}, "[7]": {"system": "rapidly growing tissues including sarcomas and carcinomas", "settings": "in vivo; cited from earlier work"}, "[8]": {"test": "Stability to demetallation (sulfide, thiosulfate)", "assay_type": "physicochemical", "settings": "aqueous Na2 S / excess sulfide anion", "from_the_text": "The above K1 and K2 (or K1 K2) values are predicated on the assumption that the cadmium complexes under discussion are stable with regards to demetallation and that the equilibria of equations 1 and 2 (or 3) pertain under the conditions of base binding. The first of these concerns is readily apparent: If demetallation occurs, then obviously one is not studying base binding! […] The second concern is particularly important within the context of quantitative work: If, for instance, the starting complex 3.cndot.NO3 is not rigorously five coordinate, then K1 (and perhaps K2 as well) would represent an axial ligand displacement reaction rather than a pure addition process as implied above. Control experiments indicate that the assumption of initial five coordination is reasonable: Independent titrations of 3A .cndot.NO3 with NH4 NO3 and H2 O indicate that only modest and monotonic changes in the chemical shift of the \"meso\" signals take place over the course of adding ≥50 equivalents of these potentially adventitious ligands.^40 This means that either \"complete\" binding occurs at 1:1 stoichiometry (essentially ruled out in the case of H2 O on the basis of analytical data), or that these species are poorly coordinating in CHCl3 so that five coordination pertains about cadmium; the latter interpretation appearing more likely.\nAttempts to demetallate complex 3A .cndot.NO3 were made. In an effort to obtain the free sp^2 bridged ligand 2A, the above complex in chloroform was stirred for several hours in the presence of sodium sulfide and independently with sodium thiosulfate. […] In the case of sodium sulfide, this critical conclusion was further supported by FAB MS: Other than the starting cationic complex 3A, no evidence was obtained for any moderate to high molecular weight volatile products in the mass spectrum. […] The rate of this process, however, is strongly pH dependent, the half-life being, for instance, on the order of several hours in the presence of ca. 0.1N HCl."}, "[9]": {"settings": "benzene, cited from earlier work"}, "[10]": {"system": "enveloped viruses (HSV-1, cytomegalovirus, measles virus, HIV-1)", "settings": "previous studies; cited from earlier work"}},
  "note": "Entries after “also recorded” stand apart in the source; their conditions may differ. Where two headings read alike, the source gives them in different places.",
  "data": [
    {"compound": "CCC1=C(C)c2cnc3ccccc3ncc3nc(cc4[n-]c(cc1n2)c(CC)c4CC)C(CC)=C3C.O=[N+]([O-])[O-].[Cd+2]", "note": "[3C NO3]", "values": [
      {"measurement": "Emission gmax", "setting": "[1]", "value": 780, "unit": "nm"},
      {"measurement": "S (= phi 1O2 / phi t)", "setting": "[1]", "value": 0.78},
      {"measurement": "tt (triplet lifetime)", "setting": "[1]; deoxygenated", "value": 55},
      {"measurement": "Absorption gmax (Soret-type band)", "setting": "[1]; first value (Soret)", "value": 417, "unit": "nm"},
      {"measurement": "Absorption gmax (Q-type band)", "setting": "[1]; second value (Q-type)", "value": 759, "unit": "nm"},
      {"measurement": "Dt (triplet quantum yield)", "setting": "[1]; ±5%", "value": 0.88},
      {"measurement": "D^1 O2 (singlet oxygen quantum yield)", "setting": "[1]; ±10%", "value": 0.69},
      {"measurement": "Df (fluorescence quantum yield)", "setting": "[1]; ±10%", "value": 0.011},
      {"measurement": "HSV-1 infectivity", "setting": "herpes simplex (HSV-1)", "value": "significant decrease"},
      {"measurement": "lymphocyte mitogenic activity", "setting": "lymphocyte", "value": "significant decrease"}
    ]},
    {"compound": "CCC1=C(C)c2cnc3ccccc3ncc3nc(cc4[nH]c(cc1n2)c(CC)c4CC)C(CC)=C3C", "note": "[5D]", "values": [
      {"measurement": "general cytotoxicity", "setting": "[2]", "value": "nor, fortunately, do they show much evidence of general cytotoxicity in the absence of light"},
      {"measurement": "localization on lymphocytes", "setting": "lymphocytes", "value": "localize selectively on lymphocytes"},
      {"measurement": "photo-killing of HSV-1 infectivity", "setting": "HSV-1; 20 J/cm^2 at lowest energy absorption (690 nm for 14D, 767 nm for 5D)", "value": "ca. 2 log"},
      {"measurement": "dark antiviral activity", "setting": "HSV-1; dark", "value": "neither 5D nor 14D show any appreciable dark antiviral activity"}
    ]},
    {"compound": "CCc1c(CC)c2cc3nc(cc4[nH]c(c(C)c4CC)c4[nH]c(cc5nc(cc1[nH]2)C(CCC(=O)N(CCO)CCO)=C5C)c(CC)c4C)C(C)=C3CCC(=O)N(CCO)CCO", "note": "[6D, reference compound]", "values": [
      {"measurement": "decrease in viral activity", "setting": "HSV-1; similar light fluence, at lowest energy transition (630 and 690 nm, respectively)", "value": "~5", "unit": "log"}
    ]},
    {"compound": "CCC1=C(C)c2cnc3ccccc3ncc3nc(cc4[n-]c(cc1n2)c(CC)c4CC)C(CC)=C3C.[In+3]", "note": "[In^3+ complex of texaphyrin]", "values": [
      {"measurement": "hydrolytic stability (in words)", "setting": "[3]", "value": "kinetically and hydrolytically stable"},
      {"measurement": "half-lives for decomplexation and/or ligand decomposition", "setting": "[3]; 1:1 methanol-water", "value": "exceed 3 weeks"}
    ]},
    {"compound": "CCC1=C(C)c2cnc3ccccc3ncc3nc(cc4[n-]c(cc1n2)c(CC)c4CC)C(CC)=C3C.[Cd+2]", "note": "[cadmium(II) complex of 5D]", "values": [
      {"measurement": "general cytotoxicity", "setting": "[2]", "value": "not appreciable cytotoxic"}
    ]},
    {"compound": "CCC1=C(C)c2cnc3ccccc3ncc3nc(cc4[n-]c(cc1n2)c(CC)c4CC)C(CC)=C3C.[Cd+2]", "note": "[complex 2B]", "values": [
      {"measurement": "half-life for imine hydrolysis", "setting": "[4]; pH 2", "value": "several hours"},
      {"measurement": "half-life for imine hydrolysis", "setting": "[4]; pH 7", "value": "> 30", "unit": "days"}
    ]},
    {"compound": "CCC1=C(C)C2=[N+]3C1=Cc1c(CC)c(CC)c4[n]1[Gd-2]315[N+](=C2)c2cc(C)c(C)cc2[N+]1=CC1=[N+]5C(=C4)C(CC)=C1C.[OH-].[OH-]", "note": "[complex 7B]", "values": [
      {"measurement": "half-life", "setting": "[5]", "value": "over 5 weeks"},
      {"measurement": "half-life for decomplexation and/or decomposition", "setting": "[5]", "value": "≥ 100", "unit": "days"},
      {"measurement": "bleaching of the Soret and Q-type bands", "setting": "[5]; 336 h, 35 µM", "value": "less than 10%"},
      {"measurement": "half-life for imine hydrolysis", "setting": "pH 2", "value": "several hours"},
      {"measurement": "half-life for imine hydrolysis", "setting": "pH 7", "value": "> 30", "unit": "days"}
    ]},
    {"compound": "CCC1=C(C)c2cnc3ccccc3ncc3nc(cc4[nH]c(cc1n2)c(CC)c4CC)C(CC)=C3C", "note": "[compound 2, 4,5,9,24-tetraethyl-10,23-dimethyl-13,20,25,26,27-pentaazapentacyclo [20.2.1.1^3,6.1^8,11.0^14,19] heptacosa-1,3,5,7,9,11(27), 12,14,16,18,20,22 (25),23-tridecaene]", "values": [
      {"measurement": "stability of free-base relative to compound 1", "setting": "[6]", "value": "undergoes decomposition far more slowly than compound 1"}
    ]},
    {"compound": "CC1=C(CCC(=O)O)c2cc3[nH]c(cc4nc(cc5[nH]c(cc1n2)c(C)c5C(C)O)C(C)=C4C(C)O)c(C)c3CCC(=O)O", "note": "(stereo not shown) [hematoporphyrin]", "values": [
      {"measurement": "localization in rapidly growing tissues", "setting": "[7]", "value": "localize selectively in rapidly growing tissues including sarcomas and carcinomas"}
    ]},
    {"compound": "cadmium tetraphenyl porphyrin [CdTPP, reference compound]", "values": [
      {"measurement": "demetallation by sulfide", "setting": "[8]", "value": "serves to demetallate CdTPP; also recorded: leads to cation loss and precipitation of CdS"},
      {"measurement": "Kd", "setting": "[9]; 29.9°, read-out: K1 (single pyridine axial ligand) (converted)", "value": "~370", "unit": "µM"},
      {"measurement": "formation of bisligated species", "setting": "[9]; pyridine-containing", "value": "no evidence for the formation of a bisligated CdTPP-(pyr)2"}
    ]},
    {"compound": "dihematoporphyrin ether [DHE]", "values": [
      {"measurement": "inactivation of viruses", "setting": "[10]", "value": "only those viruses studied which are enveloped or possess a membraneous coat are inactivated"}
    ]}
  ]
}
